Laboratory results: PubChem BioAssay (NCI)
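Cells were grown in 96-well plates and exposed to each compound for 48 hours at five concentrations; endpoints were interpolated linearly between bracketing concentrations, or set to the highest concentration if not reached. GI50 marks 50% less growth. The concentration for full growth arrest is given as TGI.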

Legend:
Assay in all cases: NCI-60 cell line screen, 48 h
COLO 205 colon = system: COLO 205 colon
SW-620 colon = system: SW-620 colon
BT-549 breast = system: BT-549 breast
HCT-116 colon = system: HCT-116 colon
MDA-MB-231 breast = system: MDA-MB-231 breast
OVCAR-8 ovarian = system: OVCAR-8 ovarian
HOP-62 NSCLC = system: HOP-62 NSCLC
CAKI-1 renal = system: CAKI-1 renal
M14 melanoma = system: M14 melanoma
OVCAR-3 ovarian = system: OVCAR-3 ovarian

| SMILES | TGI (COLO 205 colon) [µM] | TGI (SW-620 colon) [µM] | TGI (BT-549 breast) [µM] | TGI (HCT-116 colon) [µM] | TGI (MDA-MB-231 breast) [µM] | TGI (OVCAR-8 ovarian) [µM] | TGI (HOP-62 NSCLC) [µM] | TGI (CAKI-1 renal) [µM] | TGI (M14 melanoma) [µM] | TGI (OVCAR-3 ovarian) [µM] | GI50 (COLO 205 colon) [µM] | GI50 (SW-620 colon) [µM] | GI50 (BT-549 breast) [µM] | GI50 (OVCAR-3 ovarian) [µM] | GI50 (HCT-116 colon) [µM] | GI50 (MDA-MB-231 breast) [µM] | GI50 (OVCAR-8 ovarian) [µM] | GI50 (HOP-62 NSCLC) [µM] | GI50 (CAKI-1 renal) [µM] | GI50 (M14 melanoma) [µM] |
| --- | --- | --- | --- | --- | --- | --- | --- | --- | --- | --- | --- | --- | --- | --- | --- | --- | --- | --- | --- | --- |
| Nc1nc2cc(Cl)ccc2n1N | > 100 | > 100 | > 100 | > 100 | > 100 | > 100 | > 100 | > 100 | > 100 |  |  |  |  |  |  |  |  |  |  |  |
| Cc1ccc2ccccc2c1CSc1nc(N)nc2c1ncn2CC(C)C | 20.2 | > 100 | > 100 | > 100 | > 100 | > 100 | > 100 | > 48.9 | > 80.8 | > 100 |  |  |  |  |  |  |  |  |  |  |
| Oc1c(C(Nc2ccccn2)c2ccccc2)ccc2cccnc12 (stereo unspecified) | 65.9 | > 100 | > 93.4 | 21.3 | 16.4 | 23.7 | > 68.3 | > 87.4 | > 52.6 | 12.4 |  |  |  |  |  |  |  |  |  |  |
| COC(=O)CC[C@@H](C)[C@H]1CC[C@H]2[C@@H]3CC[C@@H]4C[C@H](O)CC[C@]4(C)[C@H]3CC[C@]12C | 35.4 | > 100 | 33.8 | 31.8 | 34.2 | 38.2 | 35.5 | 34.1 | 35.8 | 35 |  |  |  |  |  |  |  |  |  |  |
| CC(NNC(=S)N1CCN(c2ccccn2)CC1)c1nccc2ccccc12 (stereo unspecified) | 5.93 | 20.1 | 22.6 | 9.29 | 16.8 | 15.7 | 15.5 | 10.3 | 2.46 | 13.2 |  |  |  |  |  |  |  |  |  |  |
| Cn1nc(C(F)(F)F)cc1-c1cc(Cl)c(OCc2ccc(Cl)cc2)c(-c2ccc(Cl)c(C(F)(F)F)c2)c1O | 2.39 | 5.38 | 2.75 | 1.86 | 2.43 | 5.41 | 3.3 | 3.49 | 2.93 | 6.12 | 0.718 | 1.38 | 0.995 | 1.13 | 0.691 | 0.958 | 1.2 | 1.26 | 1.11 | 1.16 |
| CCC[CH2][Sn]1([CH2]CCC)[O]C(=O)c2cccc([N+](=O)[O-])c2C(=O)[O]1 | 1.93 | 0.54 | 2.09 | 1.62 | 1.04 | 2.24 | 3.36 | 1.39 | 2.07 | 2.3 | 0.617 | 0.171 | 0.849 | 1.06 | 0.435 | 0.271 | 1.04 | 1.92 | 0.332 | 0.682 |
| CC1=CC(C)=N/C(=N/S(=O)(=O)c2cc(C)c(Cl)cc2SCc2ccccc2)NN1 | > 100 | > 100 | > 100 | > 100 | > 100 | > 100 | > 100 | > 100 | > 100 | > 100 | > 100 | > 100 | > 100 | > 100 | > 100 | > 100 | > 100 | 82.5 | > 100 | > 100 |
| Clc1ccc2c(NC3CCC(N4CCCCC4)CC3)ccnc2c1 (stereo unspecified) | 27.2 | > 100 | 42.8 | 44.7 | 40 | > 100 | > 100 | 50.7 | 18.1 | 59.2 |  |  |  |  |  |  |  |  |  |  |
| CCOC(=O)C1=C(Nc2ccc(OC)cc2)C(N)=NC1=N | 10.1 | > 100 | > 100 | > 100 | > 100 | > 100 | > 100 | > 100 |  | 6.5 | 3.07 | 3.95 | 5.37 | 2.49 | 2.45 | 4.02 | 4.63 | 6.23 | 5.84 |  |
| Cc1nnc(N/N=C/c2ccc([N+](=O)[O-])o2)[nH]c1=O | > 100 | > 100 | > 21.5 | > 100 | > 24.5 | > 100 | > 68.2 | > 100 | > 100 | 3.18 | 2.53 | 1.24 | 0.566 | 0.429 | 0.57 | 1.26 | 0.785 | 1.45 | 1.79 | 2.89 |
| CCN(CC)CCOc1nc2ccccc2c2c1-c1ccc(OC)cc1C2=O | 1.88 | 1.58 | 13.8 | 1.55 | 6.22 | 5.7 |  | 3.66 | 3 | 2.15 | 0.49 | 0.282 | 3.29 | 0.642 | 0.331 | 1.4 | 0.527 | 1.13 | 0.486 | 1.36 |
| Cc1[nH]nc(C(F)(F)F)c1Cc1sc2c(c1C(=O)N1C[C@](C)(O)CO1)c(=O)n(C)c(=O)n2C(C)C | > 100 | > 100 | > 100 | > 100 | > 100 | > 100 | > 100 | > 100 | > 100 | > 100 | > 100 | > 100 | > 100 | > 100 | > 100 | > 100 | > 100 | > 100 | > 100 | > 100 |
| Cc1cc(N(CCC#N)S(=O)(=O)c2ccccc2)ccc1C=Nc1ccc(C(=O)O)cc1 | 10.1 | 15 | > 100 | 14.7 | > 100 | 15.5 | 46 | 5.73 | 21.8 | 21.5 |  |  |  |  |  |  |  |  |  |  |
| COc1cc(OC)c(/C=C/C(=O)c2c(OC)cc(OC)cc2OC)c(OC)c1 | 3.96 | 2.91 | > 24.5 | 10.2 | 31.1 | > 100 | > 100 | > 37.2 | 1.78 | 0.8 | 1.08 | 0.417 | 0.931 | 0.233 | 0.6 | 1.51 | 3.43 | 1.27 | 1.66 | 0.38 |
